Measured values published in patent publication US20050289665A1, “Method for disinfecting seed” (priority 2004, published 2005).
Where two headings read alike, the source gives them in different places.

Columns and labels:
[1] = test system: microbial contaminants on the seeds; settings: loblolly pine, 30% H2O2 15 minutes; for contamination of whole seed: TSYG broth at 30° C.
Protocol: Methods: The following disinfection treatment was used for loblolly pine seed: • (1) Seed was placed in a tea strainer (about 100 seed/strainer) and soaked in deionized water for one hour with agitation; • (2) The seed in the tea strainer was soaked in a 10% solution of Liquinox (VWR Scientific) for one hour with agitation; • (3) The seed in the tea strainer was soaked in 30% H2O2 on a rotary shaker in a fume hood for 15 minutes; • (4) The seed in the tea strainer was rinsed 8 times for 10 minutes each in sterile water in a laminar flow hood; • (5) The seed in the tea strainer was hydrated in sterile water for 24 hours in a laminar flow hood; and • (6) The seed in the tea strainer was rinsed three times with sterile water for 10 minutes each.
After disinfection and hydration, seed were removed from the tea strainers and placed on a sterile Petri plate. Seed were individually removed with surface-sterilized latex gloves, cracked using autoclaved Vice-Grips, and placed in sterile quadrant Petri plates (2 seeds/quadrant) containing a drop of sterile water to avoid dehydration before dissection. After dissection, 50 whole seed and 50 dissected embryos were incubated in TSYG broth (Trypticase Soy Broth 30 g/l, Yeast Extract 5 g/l, Glucose 10 g/l, and—for a solid Petri plate or agar slant—Agar 15 g/l) and examined on a daily basis for signs of contamination during an eight week incubation period at 30° C.

[2] = test system: microbial contaminants on the seeds; assay: Contamination of dissected embryos after disinfection of loblolly pine seed (Example 5); type: cell-based; settings: treatment 1: 30% hydrogen peroxide 15 min, vacuum, day 24 after dissection
Protocol: (§1) Methods: The first treatment was identical to the first treatment (hydrogen peroxide) described in EXAMPLE 4, and the second treatment was identical to the fifth treatment ([…]) described in EXAMPLE 4. Seed coats were cracked and removed, and the de-coated seeds were placed in sterile glass Petri plates (one plate/treatment) containing wet filter paper until dissection. Dissection was performed in quadrant Petri plates. A maximum of four seed were dissected per quadrant. […] Organ lengths and normalcy were assessed after 24 days on the medium.

loblolly pine seed = assay: Germination of dissected embryos on medium 185 (normalcy, organ lengths, epicotyl presence) after disinfection of loblolly pine seed (Example 5); settings: treatment 1: 30% hydrogen peroxide 15 min, vacuum, day 24 after dissection
Protocol: as §1

OO [hydrogen peroxide]
contamination of whole seed ([1]; after eight weeks of incubation): 68%
contamination of whole seed ([1]; by the third day of incubation, 4 out of 50 whole seed): 8%
contamination of dissected embryos ([1]; TSYG broth, eight week incubation at 30° C.): no contamination
Contamination (%) [2]: 0%
Cotyledon Length (cm) (loblolly pine seed): 0.7 cm
Epicotyl Presence (%) (loblolly pine seed): 65.7%
Hypocotyl Length (cm) (loblolly pine seed): 1.2 cm
Normalcy (%) (loblolly pine seed): 85.7%
Radicle Length (cm) (loblolly pine seed): 3.4 cm
